Laboratory results from ChEMBL document CHEMBL3882729, “Receptor-type kinase modulators and methods of use” (2009).

Assays:
[1] = molecular target: Ephrin type-A receptor 2 (Homo sapiens, UniProt P29317); assay: Inhibition of recombinant human N-terminal His6-tagged EphA2 (N598 to R890 residues) expressed in baculovirus using poly-EY as substrate after 180 mins by luciferase coupled chemiluminescence assay
[2] = molecular target: T1, Ephrin type-B receptor 4 (Homo sapiens, UniProt P54760); assay: Inhibition of recombinant human N-terminal His6-tagged EphB4 kinase domain (E605 to E890 residues) expressed in baculovirus using poly-AEKY as substrate after 150 mins in presence of gamma33P-ATP by liquid scintillation spectrometry
T1 sequence (P54760 whole entry): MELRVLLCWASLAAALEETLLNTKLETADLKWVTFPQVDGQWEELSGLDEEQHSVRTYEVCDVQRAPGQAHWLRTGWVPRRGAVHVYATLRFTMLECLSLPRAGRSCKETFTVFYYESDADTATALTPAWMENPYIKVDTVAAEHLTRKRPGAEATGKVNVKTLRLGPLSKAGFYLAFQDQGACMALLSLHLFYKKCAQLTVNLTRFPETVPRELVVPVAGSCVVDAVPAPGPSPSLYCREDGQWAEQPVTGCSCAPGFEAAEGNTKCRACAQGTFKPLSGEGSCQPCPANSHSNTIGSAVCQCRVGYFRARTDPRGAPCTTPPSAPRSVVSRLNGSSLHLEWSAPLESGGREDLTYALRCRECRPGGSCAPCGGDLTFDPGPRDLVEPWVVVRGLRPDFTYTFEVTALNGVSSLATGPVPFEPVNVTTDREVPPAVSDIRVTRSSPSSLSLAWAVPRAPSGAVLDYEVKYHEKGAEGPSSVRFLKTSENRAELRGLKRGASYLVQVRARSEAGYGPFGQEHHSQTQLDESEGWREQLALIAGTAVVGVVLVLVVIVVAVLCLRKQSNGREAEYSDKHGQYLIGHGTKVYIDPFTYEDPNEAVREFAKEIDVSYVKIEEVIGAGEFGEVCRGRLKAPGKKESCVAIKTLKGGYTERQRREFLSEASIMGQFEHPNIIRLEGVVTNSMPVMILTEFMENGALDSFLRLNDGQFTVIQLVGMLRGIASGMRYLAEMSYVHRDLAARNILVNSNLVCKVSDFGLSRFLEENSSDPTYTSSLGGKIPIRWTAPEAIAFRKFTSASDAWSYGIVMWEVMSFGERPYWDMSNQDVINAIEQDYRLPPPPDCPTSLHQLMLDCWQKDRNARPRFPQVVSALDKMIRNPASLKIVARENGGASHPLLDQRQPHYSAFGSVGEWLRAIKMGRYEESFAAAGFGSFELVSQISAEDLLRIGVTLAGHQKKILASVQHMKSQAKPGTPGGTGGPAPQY

[3] = molecular target: Vascular endothelial growth factor receptor 2 (Homo sapiens, UniProt P35968); assay: Inhibition of recombinant human N-terminal GST-fused KDR (D807 to V1356 residues) expressed in baculovirus infected […] insect Sf9 cells using poly-EY as substrate after 240 mins by luciferase coupled chemiluminescence assay
Vascular endothelial growth factor receptor 2, sequence (P35968 whole entry, the tested form may be a part): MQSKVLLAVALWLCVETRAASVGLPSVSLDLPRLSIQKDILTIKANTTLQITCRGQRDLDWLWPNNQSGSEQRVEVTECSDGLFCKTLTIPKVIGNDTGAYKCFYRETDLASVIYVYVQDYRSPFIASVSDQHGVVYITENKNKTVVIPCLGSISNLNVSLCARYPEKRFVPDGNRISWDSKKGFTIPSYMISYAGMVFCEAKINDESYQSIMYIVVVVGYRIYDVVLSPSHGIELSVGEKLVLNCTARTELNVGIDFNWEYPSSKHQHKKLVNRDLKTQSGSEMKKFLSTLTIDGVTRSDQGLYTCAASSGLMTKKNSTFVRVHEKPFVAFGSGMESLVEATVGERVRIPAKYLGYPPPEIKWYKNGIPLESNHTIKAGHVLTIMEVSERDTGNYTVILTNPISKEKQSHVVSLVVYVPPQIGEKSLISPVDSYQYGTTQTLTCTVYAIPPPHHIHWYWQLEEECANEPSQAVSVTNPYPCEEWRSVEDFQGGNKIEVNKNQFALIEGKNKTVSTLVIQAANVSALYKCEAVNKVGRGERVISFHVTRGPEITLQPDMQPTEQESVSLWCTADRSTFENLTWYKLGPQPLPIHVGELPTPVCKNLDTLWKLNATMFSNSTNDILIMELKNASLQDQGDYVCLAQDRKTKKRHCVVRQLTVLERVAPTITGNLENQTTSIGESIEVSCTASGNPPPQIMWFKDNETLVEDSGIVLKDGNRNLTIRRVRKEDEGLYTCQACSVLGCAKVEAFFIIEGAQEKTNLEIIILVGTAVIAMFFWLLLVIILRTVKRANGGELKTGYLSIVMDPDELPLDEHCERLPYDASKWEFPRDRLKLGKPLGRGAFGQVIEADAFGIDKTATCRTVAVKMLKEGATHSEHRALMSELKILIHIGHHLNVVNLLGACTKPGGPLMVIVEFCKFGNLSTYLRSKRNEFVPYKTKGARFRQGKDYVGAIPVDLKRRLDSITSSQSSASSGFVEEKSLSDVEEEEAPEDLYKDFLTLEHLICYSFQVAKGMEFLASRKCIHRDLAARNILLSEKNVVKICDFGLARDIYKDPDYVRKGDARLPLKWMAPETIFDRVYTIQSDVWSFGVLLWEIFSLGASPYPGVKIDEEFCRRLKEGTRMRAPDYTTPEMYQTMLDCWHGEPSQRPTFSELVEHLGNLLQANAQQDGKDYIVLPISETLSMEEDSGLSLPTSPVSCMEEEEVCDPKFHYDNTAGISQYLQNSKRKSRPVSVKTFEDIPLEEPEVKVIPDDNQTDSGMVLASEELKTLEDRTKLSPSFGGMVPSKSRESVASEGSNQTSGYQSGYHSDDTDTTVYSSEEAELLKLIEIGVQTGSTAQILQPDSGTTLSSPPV

Ephrin type-A receptor 2, sequence (P29317 whole entry, the tested form may be a part): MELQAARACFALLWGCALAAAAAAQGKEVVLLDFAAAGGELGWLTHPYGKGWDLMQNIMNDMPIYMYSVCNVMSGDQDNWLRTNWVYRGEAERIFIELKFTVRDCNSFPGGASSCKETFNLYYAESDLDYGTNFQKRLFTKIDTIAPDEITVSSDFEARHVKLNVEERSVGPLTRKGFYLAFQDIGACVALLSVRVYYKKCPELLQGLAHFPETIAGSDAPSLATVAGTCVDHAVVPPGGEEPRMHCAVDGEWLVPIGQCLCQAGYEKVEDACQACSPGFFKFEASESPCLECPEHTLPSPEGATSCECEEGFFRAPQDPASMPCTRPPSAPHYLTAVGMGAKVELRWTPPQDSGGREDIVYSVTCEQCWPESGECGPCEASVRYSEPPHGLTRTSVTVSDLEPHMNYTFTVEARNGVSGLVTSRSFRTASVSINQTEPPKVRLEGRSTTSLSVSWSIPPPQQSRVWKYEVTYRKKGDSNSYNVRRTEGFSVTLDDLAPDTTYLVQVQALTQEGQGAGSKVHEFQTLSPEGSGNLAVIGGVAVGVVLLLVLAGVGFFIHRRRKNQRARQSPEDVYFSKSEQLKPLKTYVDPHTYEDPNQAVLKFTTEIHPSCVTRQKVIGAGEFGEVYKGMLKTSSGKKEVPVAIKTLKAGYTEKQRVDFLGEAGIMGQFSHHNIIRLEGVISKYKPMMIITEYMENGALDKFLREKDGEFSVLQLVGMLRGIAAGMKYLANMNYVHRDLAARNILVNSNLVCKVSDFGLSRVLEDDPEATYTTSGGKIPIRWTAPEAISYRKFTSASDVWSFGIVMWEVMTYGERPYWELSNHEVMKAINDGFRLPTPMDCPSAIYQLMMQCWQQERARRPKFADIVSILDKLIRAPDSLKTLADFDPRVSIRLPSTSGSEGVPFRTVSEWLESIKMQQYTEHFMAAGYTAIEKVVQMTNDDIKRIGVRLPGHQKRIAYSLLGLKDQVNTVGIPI

Compound | IC50 [1] | IC50 [2] | IC50 [3]
COc1cc2c(Nc3ccc(Cl)c(Cl)c3)ncnc2cc1OCC1CN(C(=O)CC(=O)O)CCO1 (stereo unspecified) | < 50 nM | < 50 nM | < 50 nM
CCC(C(=O)N1CCOC(COc2cc3ncnc(Nc4ccc(Cl)c(Cl)c4)c3cc2OC)C1)c1ccccc1 (stereo unspecified) | 1000 to 20000 nM | 50 to 1000 nM | 50 to 1000 nM
CCC(CC)CN1CCOC(COc2cc3ncnc(Nc4ccc(Cl)c(Cl)c4)c3cc2OC)C1 (stereo unspecified) | 50 to 1000 nM | 50 to 1000 nM | 50 to 1000 nM
COc1cc2c(Nc3ccc(Cl)c(Cl)c3)ncnc2cc1OCC1CN(/C(=N/C#N)N2CCN(C)CC2)CCO1 (stereo unspecified) | 50 to 1000 nM | < 50 nM | < 50 nM
C=CCN1CCOC(COc2cc3ncnc(Nc4ccc(Cl)c(Cl)c4)c3cc2OC)C1 (stereo unspecified) | 50 to 1000 nM | 50 to 1000 nM | 50 to 1000 nM
COc1cc2c(Nc3ccc(F)c(Cl)c3)ncnc2cc1OCC1CN(C)CCO1 (stereo unspecified) | 50 to 1000 nM | 50 to 1000 nM | 50 to 1000 nM
CCCCCCCCN1CCOC(COc2cc3ncnc(Nc4ccc(Cl)c(Cl)c4)c3cc2OC)C1 (stereo unspecified) | 1000 to 20000 nM | 50 to 1000 nM | 1000 to 20000 nM
CCCCC(CC)C(=O)N1CCOC(COc2cc3ncnc(Nc4ccc(Cl)c(Cl)c4)c3cc2OC)C1 (stereo unspecified) | 50 to 1000 nM | 50 to 1000 nM | 50 to 1000 nM
COc1cc2c(Nc3ccc(Cl)c(Cl)c3)ncnc2cc1OCC1CN(CC2CCCCC2)CCO1 (stereo unspecified) | 50 to 1000 nM | 50 to 1000 nM | 50 to 1000 nM
CCC#CCN1CCOC(COc2cc3ncnc(Nc4ccc(Cl)c(Cl)c4)c3cc2OC)C1 (stereo unspecified) | 50 to 1000 nM | 50 to 1000 nM | 50 to 1000 nM
CCN1CCN(C)CC1COc1cc2ncnc(Nc3ccc(Cl)c(Cl)c3)c2cc1OC (stereo unspecified) | 50 to 1000 nM | 50 to 1000 nM | 1000 to 20000 nM
COc1cc2c(Nc3ccc(Cl)c(Cl)c3)ncnc2cc1OCC1CN(C(C)C(C)=O)CCO1 (stereo unspecified) | 50 to 1000 nM | 50 to 1000 nM | 50 to 1000 nM
COc1cc2c(Nc3ccc(Cl)c(Cl)c3)ncnc2cc1OCC1CN(C(=O)c2ccc(Cl)nc2)CCO1 (stereo unspecified) | 50 to 1000 nM | < 50 nM | 50 to 1000 nM
COc1cc2c(Nc3ccc(Cl)c(Cl)c3)ncnc2cc1OCC1CN(CCc2ccccc2)CCO1 (stereo unspecified) | 1000 to 20000 nM | 50 to 1000 nM | 50 to 1000 nM
C=CCCCCCCN1CCOC(COc2cc3ncnc(Nc4ccc(Cl)c(Cl)c4)c3cc2OC)C1 (stereo unspecified) | 50 to 1000 nM | 50 to 1000 nM | 50 to 1000 nM
COc1cc2c(Nc3ccc(Br)cc3Br)ncnc2cc1OCC1CN(C)CCO1 (stereo unspecified) | 50 to 1000 nM | 50 to 1000 nM | 50 to 1000 nM
C#CCN1CCOC(COc2cc3ncnc(Nc4ccc(Cl)c(Cl)c4)c3cc2OC)C1 (stereo unspecified) | < 50 nM | < 50 nM | < 50 nM
COc1cc2c(Nc3ccc(Cl)c(Cl)c3)ncnc2cc1OCC1CN(CCC2CCCCC2)CCO1 (stereo unspecified) | 50 to 1000 nM | 50 to 1000 nM | 50 to 1000 nM
COc1cc2c(Nc3ccc(Cl)c(Cl)c3)ncnc2cc1OCC1CN(CC=C(C)C)CCO1 (stereo unspecified) | 50 to 1000 nM | 50 to 1000 nM | 50 to 1000 nM
COc1cc2c(Nc3ccc(Cl)c(Cl)c3)ncnc2cc1OCc1noc(C2CCCN2C)n1 (stereo unspecified) | 50 to 1000 nM | 50 to 1000 nM | 50 to 1000 nM
COc1cc2c(Nc3ccc(Cl)c(Cl)c3)ncnc2cc1OCc1csc(CN2CCCC2)n1 | 50 to 1000 nM | 50 to 1000 nM | 50 to 1000 nM
COc1cc2c(Nc3ccc(Cl)c(Cl)c3)ncnc2cc1OCC1CN(C(=O)Cc2ccc(Cl)cc2)CCO1 (stereo unspecified) | 1000 to 20000 nM | 50 to 1000 nM | 50 to 1000 nM
CCN1CCN(CC)C(COc2cc3ncnc(Nc4ccc(Cl)c(Cl)c4)c3cc2OC)C1 (stereo unspecified) | 50 to 1000 nM | 50 to 1000 nM | 1000 to 20000 nM
COc1cc2c(Nc3ccc(Cl)c(Cl)c3)ncnc2cc1OCC1CN(C(=O)c2ccc3c(c2)OCO3)CCO1 (stereo unspecified) | 50 to 1000 nM | 50 to 1000 nM | 50 to 1000 nM
CCCC(CCC)C(=O)N1CCOC(COc2cc3ncnc(Nc4ccc(Cl)c(Cl)c4)c3cc2OC)C1 (stereo unspecified) | 50 to 1000 nM | 50 to 1000 nM | 50 to 1000 nM
CC[C@@H](C)CN1CCOC(COc2cc3ncnc(Nc4ccc(Cl)c(Cl)c4)c3cc2OC)C1 (stereo partly specified) | 50 to 1000 nM | 50 to 1000 nM | 50 to 1000 nM

Compound | IC50 [1] | IC50 [2] | IC50 [3]
COc1cc2c(Nc3cccc(Br)c3C)ncnc2cc1OCC1CN(C)CCO1 (stereo unspecified) | 50 to 1000 nM | 50 to 1000 nM | 50 to 1000 nM
COc1cc2c(Nc3cccc(Cl)c3F)ncnc2cc1OCC1CN(C)CCO1 (stereo unspecified) | 50 to 1000 nM | 50 to 1000 nM | 50 to 1000 nM
CCC(=O)CN1CCOC(COc2cc3ncnc(Nc4ccc(Cl)c(Cl)c4)c3cc2OC)C1 (stereo unspecified) | 50 to 1000 nM | 50 to 1000 nM | 50 to 1000 nM
COc1cc2c(Nc3ccc(Cl)c(Cl)c3)ncnc2cc1OCC1CN(CCCOC2CCCCO2)CCCO1 (stereo unspecified) | 50 to 1000 nM | < 50 nM | < 50 nM
COc1cc2c(Nc3ccc(Cl)c(Cl)c3)ncnc2cc1OCC1CN(S(=O)(=O)c2ccc(C)cc2)CCO1 (stereo unspecified) | 1000 to 20000 nM | 1000 to 20000 nM | 50 to 1000 nM
CCCCS(=O)(=O)N1CCOC(COc2cc3ncnc(Nc4ccc(Cl)c(Cl)c4)c3cc2OC)C1 (stereo unspecified) | 50 to 1000 nM | 50 to 1000 nM | 50 to 1000 nM
COc1cc2c(Nc3ccc(Cl)c(Cl)c3)ncnc2cc1OCC1CN(CCCCCCO)CCO1 (stereo unspecified) | 50 to 1000 nM | < 50 nM | < 50 nM
COc1cc2c(Nc3ccc(Cl)cc3F)ncnc2cc1OCC1CN(C)CCO1 (stereo unspecified) | 50 to 1000 nM | 50 to 1000 nM | < 50 nM
COc1cc2c(Nc3ccc(Cl)c(Cl)c3)ncnc2cc1OCC1CN(C(=O)c2ccoc2)CCO1 (stereo unspecified) | 50 to 1000 nM | < 50 nM | 50 to 1000 nM
COc1cc(Nc2ncnc3cc(OCC4CN(C)CCO4)c(OC)cc23)c(OC)cc1Cl (stereo unspecified) | 50 to 1000 nM | 50 to 1000 nM | 1000 to 20000 nM
COc1cccc(CC(=O)N2CCOC(COc3cc4ncnc(Nc5ccc(Cl)c(Cl)c5)c4cc3OC)C2)c1 (stereo unspecified) | 50 to 1000 nM | 50 to 1000 nM | 50 to 1000 nM
CCCCCCN1CCOC(COc2cc3ncnc(Nc4ccc(Cl)c(Cl)c4)c3cc2OC)C1 (stereo unspecified) | 50 to 1000 nM | 50 to 1000 nM | 50 to 1000 nM
COc1cc2c(Nc3ccc(Cl)c(Cl)c3)ncnc2cc1OCC1CN(C/C=C/Br)CCO1 (stereo unspecified) | 50 to 1000 nM | 50 to 1000 nM | 50 to 1000 nM
COc1cc2c(Nc3ccc(Cl)c(Cl)c3)ncnc2cc1OCC1CN(CCCC#N)CCO1 (stereo unspecified) | < 50 nM | < 50 nM | < 50 nM
COc1cc2c(Nc3ccc(Cl)c(Cl)c3)ncnc2cc1OCC1CN(C(=O)CCc2ccccc2)CCO1 (stereo unspecified) | 50 to 1000 nM | 50 to 1000 nM | 50 to 1000 nM
COc1cc2c(Nc3cccc(Cl)c3C)ncnc2cc1OCC1CN(C)CCO1 (stereo unspecified) | < 50 nM | < 50 nM | 50 to 1000 nM
COc1cc2c(Nc3ccc(Cl)c(Cl)c3)ncnc2cc1OCC1CN(Cc2ccccn2)CCO1 (stereo unspecified) | 50 to 1000 nM | 50 to 1000 nM | < 50 nM
COc1cc2c(Nc3ccc(Br)cc3F)ncnc2cc1OCC1CN(C)CCO1 (stereo unspecified) | 50 to 1000 nM | 50 to 1000 nM | < 50 nM
COc1cc2c(Nc3ccc(Cl)c(Cl)c3)ncnc2cc1OCC1CN(C(=O)c2c(F)ccc(F)c2F)CCO1 (stereo unspecified) | 50 to 1000 nM | 50 to 1000 nM | 50 to 1000 nM
COc1cc2c(Nc3ccc(Cl)cc3Cl)ncnc2cc1OCC1CN(C)CCO1 (stereo unspecified) | 50 to 1000 nM | 50 to 1000 nM | 50 to 1000 nM
COc1cc2c(Nc3ccc(Cl)c(Cl)c3)ncnc2cc1OCC1CN(CCO)CCO1 (stereo unspecified) | 50 to 1000 nM | 50 to 1000 nM | 50 to 1000 nM
COc1cc2c(Nc3ccc(Cl)c(Cl)c3)ncnc2cc1OCC1CN(S(=O)(=O)c2ccc(F)cc2)CCO1 (stereo unspecified) | 1000 to 20000 nM | 50 to 1000 nM | 50 to 1000 nM
COCCNC(=NC#N)N1CCOC(COc2cc3ncnc(Nc4ccc(Cl)c(Cl)c4)c3cc2OC)C1 (stereo unspecified) | 50 to 1000 nM | < 50 nM | 50 to 1000 nM
COc1cc2c(Nc3ccc(Br)cc3F)ncnc2cc1OCC1CCN(C(N)=NC#N)CC1 | 50 to 1000 nM | 50 to 1000 nM | < 50 nM
CCCCCC(=O)N1CCOC(COc2cc3ncnc(Nc4ccc(Cl)c(Cl)c4)c3cc2OC)C1 (stereo unspecified) | 50 to 1000 nM | 50 to 1000 nM | 50 to 1000 nM
COc1cc2c(Nc3ccc(Cl)c(Cl)c3)ncnc2cc1OCC1CN(C(=O)c2cccc3ccccc23)CCO1 (stereo unspecified) | 1000 to 20000 nM | 50 to 1000 nM | 50 to 1000 nM
